Experimental data from patent US8273760B2, “Indolo[3,2-c]quinoline compounds” (Kaohsiung Medical University, priority 2008, dated 2012).
Counter-ions that a name gives are not always drawn. Like-named read-outs stand apart in the source and are kept apart here.

Tests used:
telomerase = telomerase (Homo sapiens, UniProt O14746); assay: Telomeric Repeat Amplification Protocol (TRAP) assay, cell-free; settings: 0.5 μg total cell extract from H1299 human lung cancer cells, FIG. 1
K-562 = assay: In vitro anticancer assay (NCI panel), K-562; format: cell-based; settings: Homo sapiens, K562; K-562, leukemia
Experimental: (§1) Selected compounds were evaluated in vitro against the NCI's full panel of 60 cancer cell lines derived from nine cancer cell types, including: leukemia (CCRF-CEM, HL-60 (TB), K-562, MOLT-4, RPMI-8226, and SR); non-small cell lung cancer (A549/ATCC, EKVX, HOP-62, HOP-92, NCI-H226, NCI-H23, NCI-H322M, and NCI-H522); colon cancer (COLO 205, HCC-2998, HCT-116, HCT-15, HT29, KM12, and SW-620); CNS cancer (SF-268, SF-295, SF-539, SNB-19, SNB-75, and U251); melanoma (LOX IMVI, MALME-3M, M14, SK-MEL-2, SK-MEL-28, SK-MEL-5, UACC-62, and UACC-257); ovarian cancer (IGROV1, OVCAR-3, OVCAR-4, OVCAR-5, OVCAR-8, and SK-OV-3); renal cancer (786-0, A498, ACHN, CAKI-1, RXF 393, SN12C, TK-10, and UO-31); prostate cancer (PC-3 and DU-145); and breast cancer (MCF7, MCF7/ADR-RES, MDA-MB-231/ATCC, HS 578T, MDA-MB-435, MDA-N, and T-47D). For each compound, dose-response curves for each cell line were measured with five different drug concentrations, and the concentration causing 50% cell growth inhibition (GI50) compared with the control was calculated. The mean GI50 values of each tested compound for all the 60 tumor cell lines were also calculated.

786-0 = assay: In vitro anticancer assay (NCI panel), 786-0; format: cell-based; settings: Homo sapiens; 786-0, renal cancer
Experimental: as §1

HL-60 (TB) = assay: In vitro anticancer assay (NCI 60 cell line panel), HL-60 (TB); format: cell-based; settings: Homo sapiens, leukemia
Experimental: as §1

MDA-MB-435 = assay: In vitro anticancer assay (NCI panel), MDA-MB-435; format: cell-based; settings: Homo sapiens; MDA-MB-435, breast cancer
Experimental: as §1

SF-295 = assay: In vitro anticancer assay (NCI panel), SF-295; format: cell-based; settings: Homo sapiens; SF-295, CNS cancer
Experimental: as §1

PC-3 = assay: In vitro anticancer assay (NCI panel), PC-3; format: cell-based; settings: Homo sapiens; PC-3, prostate cancer
Experimental: as §1

SN12C = assay: In vitro anticancer assay (NCI panel), SN12C; format: cell-based; settings: Homo sapiens, renal cancer
Experimental: as §1

DU-145 = assay: In vitro anticancer assay (NCI panel), DU-145; format: cell-based; settings: Homo sapiens; DU-145, prostate cancer
Experimental: as §1

MCF7 = assay: In vitro anticancer assay (NCI panel), MCF7; format: cell-based; settings: Homo sapiens; MCF7, breast cancer
Experimental: as §1

[1] = test system: NCI's full panel of 60 cancer cell lines; assay: In vitro anticancer assay, all cell lines of the NCI panel; format: cell-based, human; settings: mean values of over all cell lines tested, read-out: MG MID (mean GI50)
Experimental: as §1

OVCAR-5 = assay: In vitro anticancer assay (NCI panel), OVCAR-5; format: cell-based; settings: Homo sapiens; OVCAR-5, ovarian cancer
Experimental: as §1

NCI-H460 = assay: In vitro anticancer assay (NCI panel), NCI-H460; format: cell-based; settings: Homo sapiens; NCI-H460, non-small cell lung cancer
Experimental: as §1

A549/ATCC = assay: In vitro anticancer assay (NCI panel), A549/ATCC; format: cell-based; settings: Homo sapiens, non-small cell lung cancer
Experimental: as §1

SNB-19 = assay: In vitro anticancer assay (NCI panel), SNB-19; format: cell-based; settings: Homo sapiens; SNB-19, CNS cancer
Experimental: as §1

HCT-116 = assay: In vitro anticancer assay (NCI panel), HCT-116; format: cell-based; settings: Homo sapiens; HCT-116, colon cancer
Experimental: as §1

SR = assay: In vitro anticancer assay (NCI panel), SR; format: cell-based; settings: Homo sapiens, leukemia
Experimental: as §1

MDA-MB-231/ATCC = assay: In vitro anticancer assay (NCI panel), MDA-MB-231/ATCC; format: cell-based; settings: Homo sapiens, breast cancer
Experimental: as §1

ACHN = assay: In vitro anticancer assay (NCI panel), ACHN; format: cell-based; settings: Homo sapiens, renal cancer
Experimental: as §1

OVCAR-8 = assay: In vitro anticancer assay (NCI panel), OVCAR-8; format: cell-based; settings: Homo sapiens; OVCAR-8, ovarian cancer
Experimental: as §1

SK-MEL-2 = assay: In vitro anticancer assay (NCI panel), SK-MEL-2; format: cell-based; settings: Homo sapiens; SK-MEL-2, melanoma
Experimental: as §1

OVCAR-3 = assay: In vitro anticancer assay (NCI panel), OVCAR-3; format: cell-based; settings: Homo sapiens; OVCAR-3, ovarian cancer
Experimental: as §1

HT29 = assay: In vitro anticancer assay (NCI panel), HT29; format: cell-based; settings: Homo sapiens, HT-29; HT29, colon cancer
Experimental: as §1

LOX IMVI = assay: In vitro anticancer assay (NCI panel), LOX IMVI; format: cell-based; settings: Homo sapiens, melanoma
Experimental: as §1

COLO 205 = assay: In vitro anticancer assay (NCI panel), COLO 205; format: cell-based; settings: Homo sapiens; COLO 205, colon cancer
Experimental: as §1

SF-268 = assay: In vitro anticancer assay (NCI panel), SF-268; format: cell-based; settings: Homo sapiens; SF-268, CNS cancer
Experimental: as §1

HOP-62 = assay: In vitro anticancer assay (NCI panel), HOP-62; format: cell-based; settings: Homo sapiens; HOP-62, non-small cell lung cancer
Experimental: as §1

UACC-62 = assay: In vitro anticancer assay (NCI panel), UACC-62; format: cell-based; settings: Homo sapiens; UACC-62, melanoma
Experimental: as §1

Chain of telomerase (O14746 whole entry): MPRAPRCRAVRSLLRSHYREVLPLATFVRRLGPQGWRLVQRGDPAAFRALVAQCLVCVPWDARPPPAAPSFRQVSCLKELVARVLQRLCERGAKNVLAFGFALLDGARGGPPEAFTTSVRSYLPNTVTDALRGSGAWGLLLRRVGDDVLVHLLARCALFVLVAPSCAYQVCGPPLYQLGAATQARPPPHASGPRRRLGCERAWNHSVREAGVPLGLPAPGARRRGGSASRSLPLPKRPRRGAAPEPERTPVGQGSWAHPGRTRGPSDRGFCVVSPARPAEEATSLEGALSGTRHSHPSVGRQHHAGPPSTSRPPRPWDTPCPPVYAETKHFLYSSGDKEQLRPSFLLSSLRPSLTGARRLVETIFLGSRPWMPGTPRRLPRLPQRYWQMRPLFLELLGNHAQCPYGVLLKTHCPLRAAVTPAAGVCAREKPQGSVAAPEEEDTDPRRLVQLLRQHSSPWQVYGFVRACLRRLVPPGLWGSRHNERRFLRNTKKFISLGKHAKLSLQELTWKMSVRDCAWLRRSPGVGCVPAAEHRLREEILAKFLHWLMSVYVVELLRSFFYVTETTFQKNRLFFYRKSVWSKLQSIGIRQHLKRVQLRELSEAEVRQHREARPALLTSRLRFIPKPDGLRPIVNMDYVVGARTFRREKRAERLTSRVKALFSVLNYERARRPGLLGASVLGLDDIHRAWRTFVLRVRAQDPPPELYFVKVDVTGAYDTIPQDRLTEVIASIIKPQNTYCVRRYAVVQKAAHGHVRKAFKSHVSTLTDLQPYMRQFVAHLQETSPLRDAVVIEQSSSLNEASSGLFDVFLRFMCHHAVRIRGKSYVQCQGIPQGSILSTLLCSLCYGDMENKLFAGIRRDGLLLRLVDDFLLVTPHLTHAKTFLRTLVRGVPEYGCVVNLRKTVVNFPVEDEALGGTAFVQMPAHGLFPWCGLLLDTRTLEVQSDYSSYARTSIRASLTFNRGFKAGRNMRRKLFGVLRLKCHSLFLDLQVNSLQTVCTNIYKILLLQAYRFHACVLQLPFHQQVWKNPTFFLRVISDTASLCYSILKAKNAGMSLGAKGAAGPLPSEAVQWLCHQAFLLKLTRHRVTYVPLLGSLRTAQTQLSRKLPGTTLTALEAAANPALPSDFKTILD

Compound	concentration that completely inhibited telomerase activity (telomerase)	GI50 (K-562)	GI50 (786-0)	GI50 (HL-60 (TB))	GI50 (MDA-MB-435)	GI50 (SF-295)	GI50 (PC-3)	GI50 (SN12C)	GI50 (DU-145)	GI50 (MCF7)	GI50 ([1]; Homo sapiens)	GI50 (OVCAR-5)	GI50 (NCI-H460)	GI50 (A549/ATCC)	GI50 (SNB-19)	GI50 (HCT-116)	GI50 (SR)	GI50 (MDA-MB-231/ATCC)	GI50 (ACHN)	GI50 (OVCAR-8)	further results
6-[2-(3,4-dihydroxyphenyl)ethylamino]-11 indolo[3,2-c]quinoline hydrochloride [Compound 7b]	approximately 2 nM	–	–	–	–	–	–	–	–	–	–	–	–	–	–	–	–	–	–	–	–
c1ccc2c(c1)nc(NCCN1CCNCC1)c1c3ccccc3[nH]c21 [Compound 5, N-(11H-Indolo[3,2-c]quinolin-6-yl)-2-(piperazin-1-yl)ethanamine]	approximately 0.02 nM	0.07 µM	0.22 µM	0.29 µM	0.63 µM	0.31 µM	0.31 µM	0.08 µM	0.16 µM	0.08 µM	~0.3 µM	0.54 µM	0.19 µM	0.11 µM	0.3 µM	0.07 µM	0.18 µM	0.34 µM	0.38 µM	0.04 µM	GI50 [1]: 0.35 µM; GI50 (SK-MEL-2): 1.06 µM; GI50 (OVCAR-3): 0.27 µM; GI50 (HT29): 0.12 µM; GI50 (LOX IMVI): 0.2 µM; GI50 (COLO 205): 0.22 µM; GI50 (SF-268): 0.5 µM; GI50 (HOP-62): 0.4 µM; GI50 (UACC-62): 1.26 µM
NCCCN1CCN(CCCNc2nc3ccccc3c3[nH]c4ccccc4c23)CC1 [Compound 6, {3-[4-(3-Aminopropyl)piperazin-1-yl]propyl}(11H-indolo[3,2-c]quinolin-6-yl)amine hydrochloride]	approximately 0.02 nM	0.07 µM	0.26 µM	0.42 µM	0.37 µM	0.14 µM	0.35 µM	< 0.01 µM	0.12 µM	0.12 µM	~0.3 µM	0.25 µM	0.3 µM	0.2 µM	0.27 µM	0.18 µM	0.35 µM	0.23 µM	0.2 µM	0.04 µM	GI50 (SK-MEL-2): 0.18 µM; GI50 (OVCAR-3): 0.24 µM; GI50 (HT29): 0.14 µM; GI50 (LOX IMVI): 0.29 µM; GI50 (COLO 205): 0.21 µM; GI50 (SF-268): 0.31 µM; GI50 (HOP-62): 0.24 µM; GI50 (UACC-62): 0.21 µM
Oc1ccc(CCNc2nc3ccccc3c3[nH]c4ccccc4c23)cc1 [Compound 7a, 6-[2-(4-Hydroxyphenyl)ethylamino]-11H-indolo[3,2-c]quinoline hydrochloride]	approximately 2 nM	1.91 µM	1.29 µM	2.4 µM	1.6 µM	1.38 µM	1.63 µM	1.27 µM	1.45 µM	1.37 µM	1.7 µM	2.89 µM	1.31 µM	1.33 µM	1.83 µM	1.22 µM	1.48 µM	1.36 µM	1.27 µM	1.02 µM	GI50 (SK-MEL-2): 1.73 µM; GI50 (OVCAR-3): 1.6 µM; GI50 (HT29): 1.42 µM; GI50 (LOX IMVI): 1.59 µM; GI50 (COLO 205): 1.18 µM; GI50 (SF-268): 1.71 µM; GI50 (HOP-62): 1.63 µM; GI50 (UACC-62): 1.66 µM
COc1ccc(CCNc2nc3ccccc3c3[nH]c4ccccc4c23)cc1OC [Compound 7c, 6-[2-(3,4-dimethoxyphenyl)ethylamino]-11H-indolo[3,2-c]quinoline hydrochloride]	approximately 2 nM	–	–	–	–	–	–	–	–	–	–	–	–	–	–	–	–	–	–	–	–
CN(CCCN)CCCNc1nc2ccccc2c2[nH]c3ccccc3c12 [Compound 10, N^1-[3-(11H-Indolo[3,2-c]quinolin-6-ylamino)propyl]-N^1-methylpropane-1,3-diamine hydrochloride]	–	0.04 µM	0.09 µM	0.09 µM	0.19 µM	0.13 µM	0.32 µM	0.07 µM	0.24 µM	0.05 µM	0.18 µM	0.15 µM	0.31 µM	0.08 µM	0.15 µM	0.08 µM	0.37 µM	0.17 µM	0.38 µM	0.04 µM	GI50 (SK-MEL-2): 0.2 µM; GI50 (OVCAR-3): 0.22 µM; GI50 (HT29): 0.15 µM; GI50 (LOX IMVI): 0.21 µM; GI50 (COLO 205): 0.18 µM; GI50 (SF-268): 0.25 µM; GI50 (HOP-62): 0.15 µM; GI50 (UACC-62): 0.19 µM
